Paper PMC6366430 (Journal of Enzyme Inhibition and Medicinal Chemistry, 2019)
Several values for one entry are separate records, joined by “and”; a condition that tells them apart may be missing. Identical values can stand only once. Like-named read-outs stand apart in the source and are kept apart here.

Tests used:
[1] = biological target: T1, AChE from electric eel (Electrophorus electricus, UniProt O42275); test: biochemical; details: for IC50: AChE from electric eel, mean ± SD of triplicate independent experiments
T1 construct: purchased Sigma-Aldrich
Protocol: (§1) Activity of enzymes and inhibition kinetics were determined using a Bio-Rad iMark microplate reader based on a modification of the Ellman method.[14] ^, [15] Compounds were dissolved in DMSO. The assay solution which contained 60 µL 5,5′-Dithiobis(2-nitrobenzoic acid) (DTNB) at 1.1 mM, 30 µL AChE/BuChE at 0.20 U/mL (initial concentration) and 150 µL tested compound solution with different concentrations. Absorbance was then recorded at λ = 415 nm. […]
(§2) serially diluted. Negative (without treatment) and vehicle (DMSO, final concentration 0.2% v/v for AChE and 0.8% v/v for BuChE) controls were kept for reference.
(§3) Following, there were added 60 μL of 5,5′-Dithiobis(2-nitrobenzoic acid) (DTNB, Ellman's reagent) at 1.1 mM and 30 μL of electric eel acetylcholinesterase (EeAChE) or equine serum butyrylcholinesterase (EqBuChE) at 0.20 U/mL in the presence of 1 mg/mL bovine serum albumin (BSA). Absorbance was then recorded using an iMark plate reader (Bio-Rad) equipped with a λ = 415 nm light filter and this measure used as […]
(§4) acetylthiocholine iodide (ACTI) or S-butyrylthiocholine iodide (BCTI) were added and the absorbance recorded after a 10-minute incubation at 30 °C at λ = 415 nm for 3 times within 30 seconds. Enzyme activity was calculated as percentage of untreated control discounting the blank reference. The final inhibitor concentration ranged from 100 – 0.00001 μM for AChE (dillution factor = 10) and from 400 – 0.1 μM for BuChE (dillution factor = 4). IC50 values were calculated on Graphpad Prism 7.0 using the non-linear regression model for dose-response inhibition. […]

[2] = biological target: T2, BuChE from horse serum (Equus caballus, UniProt P81908); test: biochemical; details: mean ± SD of triplicate independent experiments
T2 construct: equine serum butyrylcholinesterase (EqBuChE); from tissue; host or cells: equine (horse) serum
Protocol: as §1, §2, §3, §4

[3] = biological target: T3, electric eel acetylcholinesterase (EeAChE) (Electrophorus electricus, UniProt O42275); test: biochemical; type: biochemical; details: for inhibition type in AChE: Lineweaver–Burk; for Ki’ (non-competitive inhibition constant) on AChE / Ki: ± SD of triplicate; for Ki: read-out: Ki (competitive inhibition constant) on AChE
T3 construct: purchased Sigma-Aldrich
Protocol: as §1
(§5) The enzymatic kinetic of cholinesterase inhibition was determined according to adapted Ellman's method1. All of the solution were prepared in 0.02 M tris-HCl buffer (pH = 7.5), stock solutions of test compounds prepared in DMSO (50 mM), and the experiment conducted in triplicate. To a flat-bottom 96-well transparent plate were added 150μL of treatment solutions with inhibitors 4d and 6a at two different concentrations (Table 2) distributed in eight sets of triplicates each. Eight sets of untreated triplicates were used as negative control. Following, there were added 60 μL of 5,5′-Dithiobis(2-nitrobenzoic acid) (DTNB, Ellman's reagent) at 1.1 mM and 30 μL of electric eel acetylcholinesterase (EeAChE) or equine serum butyrylcholinesterase (EqBuChE) at 0.20 U/mL in presence of 1 mg/mL bovine serum albumin (BSA).
(§6) Absorbance was then recorded using an iMark plate reader (Bio-Rad) equipped with a λ = 415 nm light filter and this measure used as a blank reference. After 10-minute incubation at room temperature, 24 μL of acetylthiocholine iodide (ACTI) or S- […]
(§7) the absorbance recorded after incubation for 0, 5, 10, 15 and 20 minutes at room temperature at λ = 415 nm. The Lineweaver–Burk reciprocal plots were obtained by […]
(§8) plotting a 1/velocity versus 1/[substrate] graph for two different inhibitor concentrations […]
(§9) behavior, in ways the region to where the curves converge determine the type of inhibition observed. Ki, Ki' (competitive and noncompetitive inhibition constants respectively), Km (Michaelis-Menten constant) and Vmax values were calculated with Graphpad Prism 7.0 using the non-linear regression models for enzyme kinetics - inhibiton and enzyme kinects - substrate vs. velocity.

[4] = biological target: T4, equine serum butyrylcholinesterase (EqBuChE) (Equus caballus, UniProt P81908); test: biochemical; type: biochemical; details: for inhibition type in BuChE: Lineweaver–Burk; for Ki’ (non-competitive inhibition constant) on BuChE / Ki: ± SD of triplicate; for Ki: read-out: Ki (competitive inhibition constant) on BuChE
T4 construct: equine serum butyrylcholinesterase (EqBuChE); from tissue; host or cells: equine (horse) serum
Protocol: as §1, §5, §6, §7, §8, §9

[5] = Ferric reducing ability of plasma (FRAP) antioxidant assay; details: 50 µM final concentration, 10 min at 37 °C
Protocol: A 0.5 ml solution of coumarin compounds in methanol (50 µM final concentration) was mixed with 4.5 ml of the FRAP reagent. After 10 min of incubation at 37 °C, absorbance at 593 nm was measured using methanol as blank.[20] ^, [21] The calibration curve was prepared with quercetin and the results expressed as: antioxidant index based on quercetine (Q) (mmol Q/mol). The analyses were performed in triplicate.
FRAP solution was freshly prepared by mixing 25 mL acetate buffer (0.30 M) at pH
3.6, 2.5 mL ferric chloride (20 mM) and 2.5 mL 2,4,6-tris(2-pyridyl)-s-triazine (10
mM). In a test tube containing 4.5 mL of FRAP reagent were added 0.5 mL of 500 µM
solutions of 4a-d, 5a-c and 6a-c (in methanol). After a 10-minute incubation at 37°C the
absorbance was recorded in a spectrophotometer at λ = 593 nm using methanol as blank
reference11. A standard curve was obtained by plotting the absorbance read after
of quercetin (Q) equivalent to mol of inhibitor (mmol Q/mol), obtained in triplicates.

[6] = test system: N2a cells (neuroblastoma); test: N2a neuroblastoma cell viability, MTT assay; type: cell-based, murine; details: for Neuroblastoma cell viability, MTT reduction relative to control cells, Mean ± SD: 48 h; for cytotoxicity against N2a cells (in words): 48 h incubation, maximum tested concentration 50 µM
Protocol: N2a cells were cultured in Dulbecco’s modified Eagle’s medium supplemented with 10% fetal bovine serum and 0.1% gentamicin in a 5% CO2 atmosphere. N2a cells were transferred to a 96-well plate (∼10,000 cells/cm^2) and incubated for 24 h, before treatment with the compounds at 10 or 50 µM. Cell viability was evaluated by MTT (3-[4,5-dimethylthiazol-2-yl]-2,5-diphenyl tetrazolium bromide) assay.
Murine neuroblastoma cell (N2a) culture and cell viability assay.
N2a cells were cultured in Dulbecco’s modified Eagle’s medium supplemented with 10% fetal bovine serum and 0.1% gentamicin in a 5% CO2 atmosphere. N2a cells were transferred to a 96-well plate (~10,000 cells/cm2) and incubated for 24 h, before treatment with the compounds at 10 or 50 µM. After being treated, cells were grown for 48 hours. Cell viability was evaluated by MTT (3-[4,5-dimethylthiazol-2-yl]-2,5-diphenyl tetrazolium bromide) assay. MTT was added to a final concentration of 0.5 mg/mL into the wells (samples and controls), and the plates were incubated for 4 h at 37 °C. After, all the media was removed and produced formazan crystals were solubilized with DMSO and quantified by reading the OD at 570 nm in a 96-well plate reader (SpectraMax® Paradigm®, Molecular Devices). Means and standard deviations were calculated from triplicates.

T3 sequence (O42275 24-633): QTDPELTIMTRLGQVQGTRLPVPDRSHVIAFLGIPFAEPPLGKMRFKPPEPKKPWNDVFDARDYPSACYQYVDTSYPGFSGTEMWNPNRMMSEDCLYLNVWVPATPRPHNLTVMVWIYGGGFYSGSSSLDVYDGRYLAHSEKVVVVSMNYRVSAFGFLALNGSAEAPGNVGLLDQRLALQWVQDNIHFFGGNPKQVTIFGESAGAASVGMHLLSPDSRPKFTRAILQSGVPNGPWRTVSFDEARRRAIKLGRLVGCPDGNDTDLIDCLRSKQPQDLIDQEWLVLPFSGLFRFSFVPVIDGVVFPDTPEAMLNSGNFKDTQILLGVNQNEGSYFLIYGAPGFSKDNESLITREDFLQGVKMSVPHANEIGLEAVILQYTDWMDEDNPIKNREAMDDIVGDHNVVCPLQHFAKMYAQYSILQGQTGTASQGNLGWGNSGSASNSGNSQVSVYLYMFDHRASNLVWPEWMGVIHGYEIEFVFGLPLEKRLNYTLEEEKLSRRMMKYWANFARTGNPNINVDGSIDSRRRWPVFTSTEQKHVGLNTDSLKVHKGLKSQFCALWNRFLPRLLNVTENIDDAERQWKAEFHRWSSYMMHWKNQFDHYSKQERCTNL
T1 sequence (O42275 24-633): as above
T2 sequence (P81908 whole entry): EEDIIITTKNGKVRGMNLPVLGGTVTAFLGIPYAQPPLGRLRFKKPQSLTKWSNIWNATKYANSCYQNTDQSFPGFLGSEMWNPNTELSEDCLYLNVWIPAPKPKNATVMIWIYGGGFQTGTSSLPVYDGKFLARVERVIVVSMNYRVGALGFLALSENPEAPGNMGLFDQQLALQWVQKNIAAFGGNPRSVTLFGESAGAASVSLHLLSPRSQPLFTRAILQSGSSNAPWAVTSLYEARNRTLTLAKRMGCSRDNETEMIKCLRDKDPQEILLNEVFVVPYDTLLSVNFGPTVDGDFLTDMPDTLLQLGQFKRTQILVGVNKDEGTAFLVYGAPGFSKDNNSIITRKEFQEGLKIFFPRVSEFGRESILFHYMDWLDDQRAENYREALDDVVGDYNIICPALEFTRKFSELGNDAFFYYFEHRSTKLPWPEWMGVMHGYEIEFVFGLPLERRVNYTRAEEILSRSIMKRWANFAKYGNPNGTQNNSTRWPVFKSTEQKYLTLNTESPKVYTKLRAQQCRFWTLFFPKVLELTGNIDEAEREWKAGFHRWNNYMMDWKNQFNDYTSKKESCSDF
T4 sequence (P81908 whole entry): as above

Row | SMILES | SI (selectivity index, BuChE IC50/AChE IC50) [1] | IC50 [2] | FRAP value, antioxidant index based on quercetine (Q) [5] | Neuroblastoma cell viability, MTT reduction relative to control cells, Mean ± SD ([6]; 10 µM) | Neuroblastoma cell viability, MTT reduction relative to control cells, Mean ± SD ([6]; 50 µM) | cytotoxicity against N2a cells (in words) [6] | IC50 ([1]; read-out: IC50(μM)±SD AChE) | also measured
1 | CN(C)c1ccc(-c2cc3ccc(OCCN4CCCCC4)cc3oc2=O)cc1 [Compound 6a] | 354 | 6.73 ± 0.04 µM | 7.49 ± 0.61 mmol Q/mol | 92.15 ± 43.03% | 115.9 ± 4.28% | not cytotoxic |  | IC50 ([1]; IC50(μM)±SD AChE): 0.02 ± 0.001 µM; Ki’ (noncompetitive) against AChE [3]: 10 nM; inhibition type in AChE [3]: mixed-type inhibition; Vmax on AChE ([3]; inhibitor 0.01 μM): 1.762 ± 0.128 µM/min; Vmax on AChE ([3]; inhibitor 0.03 μM): 1.254 ± 0.043 µM/min; Ki’ (non-competitive inhibition constant) on AChE [3]: 10.499 ± 0.438 nM; Ki [3]: 1.61 ± 0.066 nM; inhibition type in BuChE [4]: mixed-type inhibition; Vmax on BuChE ([4]; inhibitor 0.01 μM (so in the source)): 4.837 ± 0.399 µM/min; Vmax on BuChE ([4]; inhibitor 0.03 μM (so in the source)): 3.224 ± 0.284 µM/min; Ki’ (non-competitive inhibition constant) on BuChE [4]: 7376 ± 558 nM; Ki [4]: 2580 ± 236 nM
2 | CN(C)c1ccc(-c2cc3ccc(OCCCCCN4CCCCC4)cc3oc2=O)cc1 [Compound 6c] | 4 | 3.85 ± 0.19 µM | 2.77 ± 0.00 mmol Q/mol | 59.04 ± 8.21% | 10.09 ± 3.09% | increase in toxicity | 0.92 µM and 0.96 µM | 
3 | CN(C)c1ccc(-c2cc3ccc(OCCCN4CCCCC4)cc3oc2=O)cc1 [Compound 6b] | 22 | 7.27 ± 0.273 µM | 2.42 ± 0.19 mmol Q/mol | 84.11 ± 11.1% | 16.79 ± 8.41% | increase in toxicity | 0.33 ± 0.011 µM | 
4 | O=c1oc2cc(OCCCN3CCCCC3)ccc2cc1-c1ccccc1 [Compound 5b] | 8 | 1.86 ± 0.024 µM |  | 83.55 ± 6.58% | 57.06 ± 8.72% | increase in toxicity | 0.24 ± 0.014 µM | 
5 | O=c1oc2cc(OCCCCCN3CCCCC3)ccc2cc1Br [Compound 4d] | 33 | 5.01 ± 0.253 µM |  | 80.10 ± 7.27% | 62.11 ± 10.09% |  | 0.14 µM and 0.15 µM | inhibition type in AChE [3]: mixed-type inhibition; Vmax on AChE ([3]; inhibitor 0.1 μM): 2.209 ± 0.060 µM/min; Vmax on AChE ([3]; inhibitor 0.2 μM): 1.752 ± 0.198 µM/min; Ki’ (non-competitive inhibition constant) on AChE [3]: 157.350 ± 4.674 nM; Ki [3]: 21.3 ± 0.816 nM; inhibition type in BuChE [4]: mixed-type inhibition; Vmax on BuChE ([4]; inhibitor 0.1 μM (so in the source)): 5.791 ± 0.185 µM/min; Vmax on BuChE ([4]; inhibitor 0.2 μM (so in the source)): 4.669 ± 0.229 µM/min; Ki’ (non-competitive inhibition constant) on BuChE [4]: 6621 ± 322 nM; Ki [4]: 2130 ± 148 nM
6 | O=c1oc2cc(OCCN3CCCCC3)ccc2cc1-c1ccccc1 [Compound 5a] | 18 | 2.5 ± 0.177 µM |  | 98.37 ± 8.92% | 105.5 ± 14.93% | not cytotoxic | 0.14 ± 0.009 µM | 
7 | O=c1oc2cc(OCCN3CCCCC3)ccc2cc1Br [Compound 4a] | 47 | 8.37 ± 0.167 µM |  | 89.16 ± 11.28% | 103.2 ± 13.68% | not cytotoxic | 0.18 ± 0.009 µM | 
8 | O=c1oc2cc(OCCCCCN3CCCCC3)ccc2cc1-c1ccccc1 [Compound 5c] | 2 | 0.9 ± 0.001 µM |  | 117.4 ± 4.86% | 13.47 ± 1.19% | increase in toxicity | 0.45 ± 0.036 µM | 
9 | O=c1oc2cc(OCCCCN3CCCCC3)ccc2cc1Br [Compound 4c] | 9 | 4.92 ± 0.095 µM |  | 94.43 ± 4.28% | 88.88 ± 19.01% |  | 0.55 ± 0.01 µM | 
10 | O=c1oc2cc(OCCCN3CCCCC3)ccc2cc1Br [Compound 4b] | 42 | 15.87 ± 0.007 µM |  | 93.34 ± 8.19% | 87.60 ± 4.39% |  | 0.37 ± 0.008 µM | 
